Test results as given in PubChem BioAssay AID743146 (Broad Institute, 2013).
Calls of active or inactive are those of the source.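 The calls were made as follows: active = fitted half-maximal potency for cell killing at or below the highest valid dose tested for that sample; inconclusive = flat curve with 30 to 70% viability loss, or unreliable fit; inactive = the rest.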

tested on: not listed separately; assay: A549 cell cytotoxicity, dose response, cytotoxicity control, CellTiter-Glo luminescence, dry powder, set 3 (AID 743146); details: A549 viability, CellTiter-Glo ATP luminescence, 72 h; at 26 µM (top of the series)

Structure (SMILES) | activity change, negative = cytotoxicity
O=C(CCCNC(=O)c1ccc(Cl)c(Cl)c1)N[C@@H]1CCCc2ccccc21 | -2.59% (inactive)
CC(C)(C)OC(=O)NCCC(=O)N[C@@H]1CCCc2ccccc21 | 6.05% (inactive)
CC(NC(=O)CCNC(=O)c1ccc(Cl)cc1)c1ccc(F)cc1 (stereo not drawn) | 1.56% (inactive)
CC(NC(=O)CCNC(=O)c1ccc(Cl)cc1)c1ccc2c(c1)OCO2 (stereo not drawn) | 7.31% (inactive)
O=C(CCCNC(=O)c1ccc(OC(F)(F)F)cc1)N[C@@H]1CCCc2ccccc21 | 4.74% (inactive)
O=C(CNC(=O)c1ccc(C(F)(F)F)cc1)N[C@@H]1CCCc2ccccc21 | 11% (inactive)
O=C(CCNC(=O)c1ccccc1)N[C@@H]1CCCc2ccccc21 | -10.3% (inactive)
O=C(CCNC(=O)c1ccccc1Cl)NC1CCCc2ccccc21 (stereo not drawn) | -2% (inactive)
CC(NC(=O)C1CCCN(C(=O)c2ccc(Cl)cc2)C1)c1ccccc1 (stereo not drawn) | 5.97% (inactive)
O=C(CNC(=O)c1ccc(Cl)c(Cl)c1)N[C@@H]1CCCc2ccccc21 | -1.02% (inactive)
O=C(CCNC(=O)c1ccc(Cl)cc1)NC1CCCCC1 | 8.46% (inactive)
O=C(CCNC(=O)c1ccc(F)cc1)N[C@@H]1CCCc2ccccc21 | -10.3% (inactive)
O=C(NC1CCOc2ccccc21)C1CCCN(C(=O)c2ccc(Cl)cc2)C1 (stereo not drawn) | 11.1% (inactive)
COc1ccccc1C(=O)NCCC(=O)NC1CCCc2ccccc21 (stereo not drawn) | 5.71% (inactive)
O=C(CNC(=O)c1ccc(Cl)cc1)N[C@@H]1CCCc2ccccc21 | -3.21% (inactive)
O=C(CCCNC(=O)c1ccc(Cl)cc1)N[C@@H]1CCCc2ccccc21 | -5.3% (inactive)

Structure (SMILES) | activity change, negative = cytotoxicity
CN(C(=O)CCNC(=O)c1ccc(F)cc1F)C1CCCc2ccccc21 (stereo not drawn) | 8.93% (inactive)
O=C(CCCNC(=O)c1ccc(C(F)(F)F)cc1)N[C@@H]1CCCc2ccccc21 | -7.77% (inactive)
O=C(CCn1cnc2ccccc2c1=O)NC1CCCc2ccccc21 (stereo not drawn) | -2.5% (inactive)
C[C@@H](NC(=O)CCNC(=O)c1ccc(Cl)cc1)c1ccccc1 | -3.03% (inactive)
O=C(CNC(=O)c1ccc(OC(F)(F)F)cc1)N[C@@H]1CCCc2ccccc21 | 8.39% (inactive)
Cc1cccc(C(=O)NCCC(=O)NC2CCCc3ccccc32)c1 (stereo not drawn) | 9.52% (inactive)
O=C(Cc1ccc(Cl)cc1)NCCC(=O)N[C@@H]1CCCc2ccccc21 | -2.28% (inactive)
CC(c1ccccc1)N(C)C(=O)CCNC(=O)c1ccc(Cl)cc1 (stereo not drawn) | 14% (inactive)
CC(=O)NCCC(=O)N[C@@H]1CCCc2ccccc21 | 4.17% (inactive)
CC(C)(C)OC(=O)NCCC(=O)N[C@H]1CCCc2ccccc21 | -0.649% (inactive)
COc1ccccc1C(C)NC(=O)CCNC(=O)c1ccc(Cl)cc1 (stereo not drawn) | 10% (inactive)
O=C(NC1CCc2ccccc21)C1CCCN(C(=O)c2ccc(Cl)cc2)C1 (stereo not drawn) | -1.86% (inactive)
NCCC(=O)N[C@@H]1CCCc2ccccc21 | 11.5% (inactive)
CC(CC(=O)N(C)C1CCCc2ccccc21)NC(=O)c1ccccc1 (stereo not drawn) | -7.34% (inactive)
O=C(CCNC(=O)c1ccc(Cl)cc1)N[C@@H]1CCc2ccccc21 | 0.571% (inactive)
CC(CC(=O)NC1CCCc2ccccc21)NC(=O)c1ccccc1 (stereo not drawn) | 0.372% (inactive)

tested on: A549 viability, CellTiter-Glo ATP luminescence, 72 h; assay: as above; details: not given

Structure (SMILES) | AC50
O=C(CCNC(=O)c1ccc(Cl)cc1)NC1CCCc2ccccc21 (stereo not drawn) | 26 µM
